Earlier results on 1 molecule are cited in US7317103B2, “Imaging agents for diagnosis of Parkinson's disease” (Molecular Insight Pharmaceuticals, Inc., priority 2000, dated 2008).

The conditions of this data set: Tc-99m labeled tropane analog, Kung et al.

Take `CN1[C@H]2CC[C@@H]1[C@@H](CN(CC[S-])CC[N-]CC[S-])[C@@H](c1ccc(Cl)cc1)C2.[O]=[99Tc+4]` [TRODAT]: the absolute brain uptake entry is reported as “very low”.
